Measurements published in US20240269139A1, “COMPOUNDS FOR TARGETED PROTEIN DEGRADATION OF KINASES” (DANA-FARBER CANCER INSTITUTE, INC., priority 2020, published 2024).
Read-outs that look alike come from different tables or passages of the source.

What was measured:
Assay type in all cases: cell-based
[1] = biological target: protein kinases (human kinome) (Homo sapiens, UniProt Q15759); settings: for logFC MAPK11 (Q15759): direction of change down; for logFC: MAPK11 (Q15759)
[2] = biological target: T1, protein kinases (human kinome) (Homo sapiens, UniProt P53778); settings: for logFC MAPK12 (P53778): direction of change down; for logFC: MAPK12 (P53778)
T1 sequence (P53778 1-367): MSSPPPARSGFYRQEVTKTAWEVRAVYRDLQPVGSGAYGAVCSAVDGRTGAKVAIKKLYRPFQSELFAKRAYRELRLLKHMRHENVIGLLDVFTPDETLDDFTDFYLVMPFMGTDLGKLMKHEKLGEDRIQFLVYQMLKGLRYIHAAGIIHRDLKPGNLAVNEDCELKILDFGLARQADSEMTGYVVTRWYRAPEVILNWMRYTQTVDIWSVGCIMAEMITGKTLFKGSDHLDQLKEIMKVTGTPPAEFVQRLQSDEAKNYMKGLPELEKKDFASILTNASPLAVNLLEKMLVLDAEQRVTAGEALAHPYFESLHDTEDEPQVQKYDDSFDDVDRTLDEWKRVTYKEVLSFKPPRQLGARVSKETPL

[3] = biological target: protein kinases (human kinome) (Homo sapiens, UniProt Q8TEA7); settings: experiment wp056
[4] = biological target: protein kinases (human kinome) (Homo sapiens, UniProt P52429); settings: protein DGKE (P52429); experiment wp056; down
[5] = biological target: protein kinases (human kinome) (Homo sapiens, UniProt P29317); settings: for logFC: EPHA2 (P29317)
[6] = biological target: protein kinases (human kinome) (Homo sapiens, UniProt P17948); settings: experiment wp131
[7] = biological target: protein kinases (human kinome) (Homo sapiens, UniProt Q14680); settings: experiment wp131
[8] = biological target: protein kinases (human kinome) (Homo sapiens, UniProt P51956); settings: experiment wp146
[9] = biological target: T2, protein kinases (human kinome) (Homo sapiens, UniProt P29323)
T2 sequence (P29323 19-1055): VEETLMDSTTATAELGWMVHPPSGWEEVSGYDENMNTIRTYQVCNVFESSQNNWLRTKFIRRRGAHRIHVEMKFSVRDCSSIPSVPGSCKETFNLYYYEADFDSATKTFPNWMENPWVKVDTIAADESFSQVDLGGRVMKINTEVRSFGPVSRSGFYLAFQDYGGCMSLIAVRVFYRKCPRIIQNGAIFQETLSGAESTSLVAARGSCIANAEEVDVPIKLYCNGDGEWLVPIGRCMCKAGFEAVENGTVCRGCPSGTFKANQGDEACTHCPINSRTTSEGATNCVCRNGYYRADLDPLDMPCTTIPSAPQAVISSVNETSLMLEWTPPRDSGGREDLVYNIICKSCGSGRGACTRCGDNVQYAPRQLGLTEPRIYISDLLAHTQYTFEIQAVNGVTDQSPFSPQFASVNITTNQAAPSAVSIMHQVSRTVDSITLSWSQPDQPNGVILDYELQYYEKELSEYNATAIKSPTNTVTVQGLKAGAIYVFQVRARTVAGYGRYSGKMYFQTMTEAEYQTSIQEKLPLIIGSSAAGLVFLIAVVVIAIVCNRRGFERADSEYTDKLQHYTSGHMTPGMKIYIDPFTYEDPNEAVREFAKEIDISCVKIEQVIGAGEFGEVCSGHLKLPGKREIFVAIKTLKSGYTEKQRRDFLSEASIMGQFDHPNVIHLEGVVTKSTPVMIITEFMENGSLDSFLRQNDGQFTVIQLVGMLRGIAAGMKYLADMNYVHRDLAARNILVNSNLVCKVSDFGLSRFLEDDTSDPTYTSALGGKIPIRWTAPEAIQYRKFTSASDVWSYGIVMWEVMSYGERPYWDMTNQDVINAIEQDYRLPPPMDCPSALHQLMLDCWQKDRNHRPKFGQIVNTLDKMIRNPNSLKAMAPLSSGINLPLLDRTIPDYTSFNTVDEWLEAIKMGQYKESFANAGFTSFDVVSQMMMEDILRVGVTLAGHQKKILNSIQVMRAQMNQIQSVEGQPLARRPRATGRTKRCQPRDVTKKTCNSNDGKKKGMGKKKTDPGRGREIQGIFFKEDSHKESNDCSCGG

[10] = biological target: protein kinases (human kinome) (Homo sapiens, UniProt Q52WX2); settings: for logFC: SBK1 (Q52WX2)
protein kinases (human kinome) (Homo sapiens, UniProt Q52WX2), sequence (Q52WX2 whole entry): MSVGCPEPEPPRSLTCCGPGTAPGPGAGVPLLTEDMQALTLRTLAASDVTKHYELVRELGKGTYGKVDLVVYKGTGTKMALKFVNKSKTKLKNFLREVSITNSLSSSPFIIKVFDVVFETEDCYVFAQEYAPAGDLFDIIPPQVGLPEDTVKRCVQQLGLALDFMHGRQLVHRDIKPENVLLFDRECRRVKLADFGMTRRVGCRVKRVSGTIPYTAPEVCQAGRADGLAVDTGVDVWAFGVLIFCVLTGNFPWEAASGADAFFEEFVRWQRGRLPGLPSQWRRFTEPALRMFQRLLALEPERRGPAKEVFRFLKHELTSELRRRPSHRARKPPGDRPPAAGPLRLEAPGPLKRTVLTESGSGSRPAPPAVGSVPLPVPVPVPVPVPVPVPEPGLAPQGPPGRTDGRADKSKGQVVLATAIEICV

protein kinases (human kinome) (Homo sapiens, UniProt P29317), sequence (P29317 24-976): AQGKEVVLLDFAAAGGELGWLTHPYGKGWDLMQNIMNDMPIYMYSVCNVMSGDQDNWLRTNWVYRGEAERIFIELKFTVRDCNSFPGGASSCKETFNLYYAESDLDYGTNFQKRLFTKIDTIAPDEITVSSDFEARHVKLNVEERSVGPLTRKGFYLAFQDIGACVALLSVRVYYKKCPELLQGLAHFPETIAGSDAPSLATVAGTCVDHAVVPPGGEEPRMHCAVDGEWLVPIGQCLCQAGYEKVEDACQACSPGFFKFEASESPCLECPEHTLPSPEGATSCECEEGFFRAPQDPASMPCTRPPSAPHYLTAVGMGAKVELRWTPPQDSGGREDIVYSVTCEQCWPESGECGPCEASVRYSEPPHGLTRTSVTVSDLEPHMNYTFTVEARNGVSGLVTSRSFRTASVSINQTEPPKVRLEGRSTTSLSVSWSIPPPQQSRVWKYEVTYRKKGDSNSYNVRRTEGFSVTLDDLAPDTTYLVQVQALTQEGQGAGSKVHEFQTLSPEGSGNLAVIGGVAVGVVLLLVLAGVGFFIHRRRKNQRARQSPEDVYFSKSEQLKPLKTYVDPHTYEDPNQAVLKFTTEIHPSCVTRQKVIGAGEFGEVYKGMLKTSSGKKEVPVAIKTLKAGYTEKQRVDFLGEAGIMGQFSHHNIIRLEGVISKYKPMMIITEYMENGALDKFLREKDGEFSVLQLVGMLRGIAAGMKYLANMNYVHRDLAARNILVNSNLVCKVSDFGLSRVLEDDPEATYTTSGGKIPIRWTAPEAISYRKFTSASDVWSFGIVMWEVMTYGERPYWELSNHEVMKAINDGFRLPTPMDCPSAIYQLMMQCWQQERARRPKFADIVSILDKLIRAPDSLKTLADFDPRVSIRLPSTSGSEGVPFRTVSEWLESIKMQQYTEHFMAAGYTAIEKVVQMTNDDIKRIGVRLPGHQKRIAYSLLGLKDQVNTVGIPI
protein kinases (human kinome) (Homo sapiens, UniProt Q15759), sequence (Q15759 whole entry): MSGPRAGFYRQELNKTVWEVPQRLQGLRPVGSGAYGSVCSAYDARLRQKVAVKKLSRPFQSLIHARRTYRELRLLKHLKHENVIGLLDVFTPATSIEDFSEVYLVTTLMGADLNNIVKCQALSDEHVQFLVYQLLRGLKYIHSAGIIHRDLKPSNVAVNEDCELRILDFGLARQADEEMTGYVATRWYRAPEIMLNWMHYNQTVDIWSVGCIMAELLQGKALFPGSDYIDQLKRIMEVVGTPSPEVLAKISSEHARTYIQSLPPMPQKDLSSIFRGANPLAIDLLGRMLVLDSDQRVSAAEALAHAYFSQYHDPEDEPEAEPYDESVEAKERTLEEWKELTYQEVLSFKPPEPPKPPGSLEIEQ
protein kinases (human kinome) (Homo sapiens, UniProt Q14680), sequence (Q14680 whole entry): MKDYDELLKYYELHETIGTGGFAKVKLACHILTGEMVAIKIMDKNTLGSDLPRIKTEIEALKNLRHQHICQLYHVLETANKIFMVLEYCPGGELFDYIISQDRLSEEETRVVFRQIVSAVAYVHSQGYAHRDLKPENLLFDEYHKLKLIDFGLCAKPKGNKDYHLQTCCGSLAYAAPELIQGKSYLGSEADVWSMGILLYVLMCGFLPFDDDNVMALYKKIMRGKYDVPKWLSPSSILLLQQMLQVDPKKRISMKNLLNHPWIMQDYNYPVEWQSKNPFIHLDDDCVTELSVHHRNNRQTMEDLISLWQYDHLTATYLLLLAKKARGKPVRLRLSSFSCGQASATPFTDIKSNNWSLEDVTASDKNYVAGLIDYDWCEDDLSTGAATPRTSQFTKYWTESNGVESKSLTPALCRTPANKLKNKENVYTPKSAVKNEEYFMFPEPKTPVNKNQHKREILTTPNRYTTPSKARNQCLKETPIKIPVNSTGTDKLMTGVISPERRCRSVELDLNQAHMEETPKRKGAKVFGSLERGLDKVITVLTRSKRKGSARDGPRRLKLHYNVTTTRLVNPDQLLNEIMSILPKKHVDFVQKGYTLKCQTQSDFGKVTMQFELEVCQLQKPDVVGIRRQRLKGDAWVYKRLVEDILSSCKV
protein kinases (human kinome) (Homo sapiens, UniProt P17948), sequence (P17948 27-1338): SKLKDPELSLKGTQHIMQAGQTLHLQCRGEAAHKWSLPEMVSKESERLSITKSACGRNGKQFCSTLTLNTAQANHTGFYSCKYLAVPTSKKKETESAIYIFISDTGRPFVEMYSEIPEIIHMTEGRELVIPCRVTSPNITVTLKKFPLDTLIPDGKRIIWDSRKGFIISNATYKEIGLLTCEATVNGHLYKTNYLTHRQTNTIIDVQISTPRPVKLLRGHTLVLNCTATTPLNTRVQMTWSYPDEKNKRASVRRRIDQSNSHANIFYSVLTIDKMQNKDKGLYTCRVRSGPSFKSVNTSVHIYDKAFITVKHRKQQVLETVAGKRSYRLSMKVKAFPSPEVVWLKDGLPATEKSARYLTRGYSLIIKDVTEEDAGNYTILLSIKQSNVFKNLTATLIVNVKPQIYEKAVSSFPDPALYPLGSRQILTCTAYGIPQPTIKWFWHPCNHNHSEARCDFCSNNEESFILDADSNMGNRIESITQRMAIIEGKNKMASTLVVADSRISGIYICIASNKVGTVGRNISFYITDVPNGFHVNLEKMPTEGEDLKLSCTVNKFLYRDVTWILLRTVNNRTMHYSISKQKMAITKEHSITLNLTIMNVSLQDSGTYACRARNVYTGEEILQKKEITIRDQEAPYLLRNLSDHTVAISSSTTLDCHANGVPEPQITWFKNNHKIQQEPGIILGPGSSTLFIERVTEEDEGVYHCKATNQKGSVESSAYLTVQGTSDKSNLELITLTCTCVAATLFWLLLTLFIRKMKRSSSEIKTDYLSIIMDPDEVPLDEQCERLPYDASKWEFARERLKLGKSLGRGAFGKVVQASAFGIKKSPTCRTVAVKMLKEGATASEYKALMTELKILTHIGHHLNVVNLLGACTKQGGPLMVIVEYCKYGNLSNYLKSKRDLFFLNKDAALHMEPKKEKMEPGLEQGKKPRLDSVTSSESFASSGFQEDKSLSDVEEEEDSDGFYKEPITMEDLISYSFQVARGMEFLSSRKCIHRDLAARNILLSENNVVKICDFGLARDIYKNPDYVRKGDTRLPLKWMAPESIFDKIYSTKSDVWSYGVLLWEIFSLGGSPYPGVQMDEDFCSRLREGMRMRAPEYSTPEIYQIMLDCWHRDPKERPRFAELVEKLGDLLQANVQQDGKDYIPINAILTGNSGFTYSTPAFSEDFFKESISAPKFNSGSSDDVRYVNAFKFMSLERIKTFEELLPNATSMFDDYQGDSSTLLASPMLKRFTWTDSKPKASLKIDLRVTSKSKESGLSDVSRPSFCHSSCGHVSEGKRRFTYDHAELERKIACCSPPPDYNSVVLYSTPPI
protein kinases (human kinome) (Homo sapiens, UniProt Q8TEA7), sequence (Q8TEA7 whole entry): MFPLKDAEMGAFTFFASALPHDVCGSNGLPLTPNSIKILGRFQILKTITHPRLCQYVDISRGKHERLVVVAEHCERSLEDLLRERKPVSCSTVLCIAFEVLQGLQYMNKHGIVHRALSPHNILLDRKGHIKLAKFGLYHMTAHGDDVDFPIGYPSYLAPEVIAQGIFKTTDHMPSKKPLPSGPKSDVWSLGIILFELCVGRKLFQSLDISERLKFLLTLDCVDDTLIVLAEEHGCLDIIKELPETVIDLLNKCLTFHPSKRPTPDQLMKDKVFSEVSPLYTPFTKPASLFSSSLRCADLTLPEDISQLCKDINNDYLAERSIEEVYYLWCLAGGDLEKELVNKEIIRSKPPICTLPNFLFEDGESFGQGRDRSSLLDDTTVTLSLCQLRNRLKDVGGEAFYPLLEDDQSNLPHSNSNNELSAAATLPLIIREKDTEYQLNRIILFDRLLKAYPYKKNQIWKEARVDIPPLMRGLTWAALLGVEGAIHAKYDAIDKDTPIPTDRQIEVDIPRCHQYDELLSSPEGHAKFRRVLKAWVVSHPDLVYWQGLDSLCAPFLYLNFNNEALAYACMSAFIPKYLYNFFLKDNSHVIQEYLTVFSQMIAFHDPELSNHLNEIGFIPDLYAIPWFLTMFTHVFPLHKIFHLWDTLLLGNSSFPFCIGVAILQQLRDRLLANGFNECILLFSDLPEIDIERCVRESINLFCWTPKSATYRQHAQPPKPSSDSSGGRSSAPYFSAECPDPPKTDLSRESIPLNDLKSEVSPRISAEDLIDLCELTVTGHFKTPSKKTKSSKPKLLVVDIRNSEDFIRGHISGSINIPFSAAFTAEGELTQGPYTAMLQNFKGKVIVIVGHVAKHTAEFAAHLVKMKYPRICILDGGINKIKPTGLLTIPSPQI

## Cc1ccc(NC(=O)c2cccc(C(F)(F)F)c2)cc1N1Cc2cnc(Nc3ccc(N4CCN(Cc5cn(CCCCCOc6cccc7c6C(=O)N(C6CCC(=O)NC6=O)C7=O)nn5)CC4)nc3)nc2N(C)C1=O (centres unmarked) [DB0646, N-(3-(7-((6-(4-((1-(5-((2-(2,6-Dioxopiperidin-3-yl)-1,3-dioxoisoindolin-4-yl)oxy)pentyl)-1H-1,2,3-triazol-4-yl)methyl)piperazin-1-v)pyridin-3-yl)amino)-1-methyl-2-oxo-1,4-dihydropyrimido[4,5-d]pyrimidin-3(2H)-yl)-4-methylphenyl)-3-(trifluoromethyl)benzamide]
[1]; Experiment wp105
  logFC MAPK11 (Q15759): −0.3998
[1]; Experiment wp114
  logFC MAPK11 (Q15759): −0.6209
[1]; experiment wp105
  logFC: −0.3998
[1]; experiment wp114
  logFC: −0.6209
[2]; Experiment wp105
  logFC MAPK12 (P53778): −0.5939
[2]; experiment wp105
  logFC: −0.5939
[2]; experiment wp172
  logFC: −1.457
  logFC MAPK12 (P53778): −1.457

## C=CCn1c(=O)c2cnc(Nc3ccc(N4CCN(CCCNc5cccc6c5C(=O)N(C5CCC(=O)NC5=O)C6=O)CC4)cc3)nc2n1-c1cccc(C(C)(C)O)n1 (centres unmarked) [ZNL.02.096]
[3]; direction of change down
  logFC TBCK (Q8TEA7): −0.3334
[3]; protein TBCK (QSTEA7), down
  logFC TBCK: −0.3334
[4]
  logFC DGKE: −0.3512

## Cc1ccc(C(=O)Nc2ccc(CN3CCN(CCCOCCOCCOCCNC(=O)COc4cccc5c4C(=O)N(C4CCC(=O)NC4=O)C5=O)CC3)c(C(F)(F)F)c2)cc1C#Cc1cnc2cccnn12 (centres unmarked) [SB1.G.187]
[5]; experiment wp114
  logFC: −0.401
[5]; experiment wp172
  logFC: −0.4107
[5]; Experiment wp114
  logFC of EPHA2 (P29317): −0.401
[5]; Experiment wp172
  logFC of EPHA2 (P29317): −0.4107

## CC(C)S(=O)(=O)c1ccccc1Nc1nc(Nc2ccc(N3CCN(CCOCCOCCNC(=O)CNc4cccc5c4C(=O)N(C4CCC(=O)NC4=O)C5=O)CC3)cc2)ncc1Cl (centres unmarked) [TL12.186]
[6]; direction of change down
  logFC FLT1 (P17948-1): −0.699
[6]; protein FLT1 (P17948-1), down
  logFC FLT1: −0.699

## Cc1ncsc1-c1ccc([C@H](C)NC(=O)[C@@H]2C[C@@H](O)CN2C(=O)[C@@H](NC(=O)CCOCCOCCN2CCN(c3ccc(Nc4ncc(Cl)c(Nc5ccccc5S(=O)(=O)C(C)C)n4)cc3)CC2)C(C)(C)C)cc1 [FMF.06.098.1]
[7]; direction of change down
  logFC MELK (Q14680): −0.38
[7]; protein MELK (Q14680), down
  logFC MELK: −0.38

## Cc1cc(Nc2ncc(Br)c(Nc3cccc(F)c3C(N)=O)n2)ccc1S(=O)(=O)NCCOCCOCCOCCOCCNc1cccc2c1C(=O)N(C1CCC(=O)NC1=O)C2=O (centres unmarked) [TMX.02.174]
[8]; direction of change down
  logFC NEK3 (P51956): −0.8497
[8]; protein NEK3 (P51956), down
  logFC NEK3: −0.8497

## CC(C)S(=O)(=O)c1ccccc1Nc1nc(Nc2ccc(N3CCN(CCOCCNC(=O)CNc4cccc5c4C(=O)N(C4CCC(=O)NC4=O)C5=O)CC3)cc2)ncc1Cl (centres unmarked) [SK.3.91]
[9]; EPHB2 (P29323), experiment wp107
  logFC: −0.6293
[9]; Experiment wp107
  logFC of EPHB2 (P29323): −0.6293
[10]; Experiment wp107
  logFC of SBK1 (Q52WVX2): −0.921
[10]; experiment wp107
  logFC: −0.921
[10]; experiment wp133, 2 hr
  logFC: −0.6852
  logFC of SBK1 (Q52WX2): −0.6852
[10]; experiment wp133, 4 hr
  logFC: −0.9029
  logFC of SBK1 (Q52WX2): −0.9029
